Assay results published in ChEMBL document CHEMBL5032490, “Neuroactive Type-A γ-Aminobutyric Acid Receptor Allosteric Modulator Steroids from the Hypobranchial Gland of Marine Mollusk, Conus geographus” (J Med Chem, 2021).
Active and inactive are the calls of the source.

Assays:
[1] = system: Neuron; assay: Effect on mouse GABA receptor expressed in mouse DRG neurons at 10 uM using cold thermosensors; type: tissue-based
[2] = system: Neuron; assay: Effect on mouse GABA receptor expressed in mouse non-peptidergic nociceptive DRG neurons at 10 uM; type: tissue-based
[3] = system: Neuron; assay: Effect on mouse GABA receptor expressed in mouse peptidergic nociceptive DRG neurons at 10 uM; type: tissue-based
[4] = system: Neuron; assay: Effect on mouse GABA receptor expressed in mouse C-low-threshold mechanoreceptors DRG neurons at 10 uM; type: tissue-based
[5] = Induction of ATP-induced cytosolic calcium ion concentration in mouse DRG neurons assessed as neuron population at 10 microg/ml measured after 1 hr by Fura2AM dye based fluorescence microscopic; type: functional; conditions: dose 10 µg/ml
[6] = Induction of Kcl-induced cytosolic calcium ion concentration in mouse DRG neurons in response to Kcl at 10 microg/ml measured after 1 hr by Fura2AM dye based fluorescence microscopic analysis; type: functional, Neuron; conditions: dose 10 µg/ml
[7] = Induction of cytosolic calcium ion concentration in mouse DRG neurons at 10 microg/ml measured after 1 hr by Fura2AM dye based fluorescence microscopic analysis; type: functional, Neuron; conditions: dose 10 µg/ml
[8] = Reduction in ATP-induced cytosolic calcium ion concentration in mouse DRG neurons at 10 microg/ml measured after 1 hr by Fura2AM dye based fluorescence microscopic analysis in response to ATP; type: functional, Neuron; design: scale not given: the % may be the effect or the level left; conditions: dose 10 µg/ml
[9] = (§1) Reduction in Kcl-induced cytosolic calcium ion concentration in mouse DRG neurons at 10 microg/ml measured after 1 hr by Fura2AM dye based fluorescence microscopic analysis in response to Kcl; type: functional, Neuron; design: scale not given: the % may be the effect or the level left; conditions: dose 10 µg/ml
[10] = system: Neuron; assay: as §1; type: functional; conditions: dose 10.0 µg/ml
[11] = Reduction of ATP and Kcl-induced increase in cytosolic Ca2+ ion concentration mouse DRG other neuron subtype assessed as neuron population at 10 uM measured after 1 hr by Fura2AM dye based fluorescence microscopic analysis; type: functional; design: scale not given: the % may be the effect or the level left
[12] = Reduction of ATP and Kcl-induced increase in cytosolic Ca2+ ion concentration mouse […] assessed as neuron population at 10 uM measured after 1 hr by Fura2AM dye based fluorescence microscopic analysis; type: functional; design: scale not given: the % may be the effect or the level left
[13] = Reduction of ATP and Kcl-induced increase in cytosolic Ca2+ ion concentration mouse non-peptidergic nociceptive DRG neuron assessed as neuron population at 10 uM measured after 1 hr by Fura2AM dye based fluorescence microscopic analysis; type: functional; design: scale not given: the % may be the effect or the level left
[14] = Induction of cytosolic calcium ion concentration in mouse non-peptidergic nociceptive DRG neuron at 10 uM measured after 1 hr by Fura2AM dye based fluorescence microscopic analysis; type: functional
[15] = Induction of ATP and Kcl-induced increase in cytosolic Ca2+ ion concentration mouse non-peptidergic nociceptive DRG neuron assessed as neuron population at 10 uM measured after 1 hr by Fura2AM dye based fluorescence microscopic analysis; type: functional
[16] = Induction of cytosolic calcium ion concentration in mouse DRG other neuron subtype at 10 uM measured after 1 hr by Fura2AM dye based fluorescence microscopic analysis; type: functional
[17] = Reduction of ATP and Kcl-induced increase in cytosolic Ca2+ ion concentration mouse peptidergic nociceptive DRG neuron assessed as neuron population at 10 uM measured after 1 hr by Fura2AM dye based fluorescence microscopic analysis; type: functional; design: scale not given: the % may be the effect or the level left
[18] = Induction of ATP and Kcl-induced increase in cytosolic Ca2+ ion concentration mouse […] assessed as neuron population at 10 uM measured after 1 hr by Fura2AM dye based fluorescence microscopic analysis; type: functional
[19] = Induction of ATP and Kcl-induced increase in cytosolic Ca2+ ion concentration mouse DRG other neuron subtype assessed as neuron population at 10 uM measured after 1 hr by Fura2AM dye based fluorescence microscopic analysis; type: functional
[20] = Induction of ATP and Kcl-induced increase in cytosolic Ca2+ ion concentration mouse peptidergic nociceptive DRG neuron assessed as neuron population at 10 uM measured after 1 hr by Fura2AM dye based fluorescence microscopic analysis; type: functional
[21] = Induction of cytosolic calcium ion concentration in mouse peptidergic nociceptive DRG neuron at 10 uM measured after 1 hr by Fura2AM dye based fluorescence microscopic analysis; type: functional
[22] = Induction of cytosolic calcium ion concentration in mouse microglia cells at 10 uM measured after 1 hr by Fura2AM dye based fluorescence microscopic analysis; type: functional

| SMILES | Activity [1] | Activity [2] | Activity [3] | Activity [4] | Activity [5] [%] | Activity [6] [%] | Activity [7] [%] | Activity [8] [%] | Activity [9] [%] | further results |
| --- | --- | --- | --- | --- | --- | --- | --- | --- | --- | --- |
| CC(C)[C@@H](C)/C=C/[C@@H](C)[C@H]1CC[C@H]2C3=CC=C4C[C@@H](O)CC[C@]4(C)[C@H]3CC[C@]12C | inactive | inactive | inactive | inactive |  |  |  |  |  |  |
| C[C@H](CCC(=O)O)[C@H]1CC[C@H]2[C@@H]3[C@H](O)C[C@@H]4C[C@H](O)CC[C@]4(C)[C@H]3C[C@H](O)[C@]12C | inactive | inactive | inactive | inactive |  |  |  |  |  |  |
| CC(C)CCC[C@@H](C)[C@H]1CC[C@H]2[C@@H]3CC=C4C[C@@H](O)CC[C@]4(C)[C@H]3CC[C@]12C | inactive | inactive | inactive | inactive |  |  |  |  |  |  |
| CC(C)C(=O)CC[C@@H](C)[C@H]1CC[C@H]2[C@@H]3C(=O)C=C4C=CCC[C@]4(C)[C@H]3CC[C@]12C |  |  |  |  | 11 | 19 | 6 | 13 | 1 |  |
| C[C@H](CC[C@@H](O)C(C)(C)O)[C@H]1CC[C@H]2[C@@H]3C(=O)C=C4C=CCC[C@]4(C)[C@H]3CC[C@]12C |  |  |  |  | 36 | 38 | 3 | 3 | 4 |  |
| C[C@H](CCC(=O)C(C)(C)O)[C@H]1CC[C@H]2[C@@H]3C(=O)C=C4C=CCC[C@]4(C)[C@H]3CC[C@]12C |  |  |  |  | 9 | 22 | 35 | 17 | 2 |  |
| C[C@H](CC[C@@H](O)C(C)(C)O)[C@H]1CC[C@H]2[C@@H]3C(=O)C=C4C[C@H](O)CC[C@]4(C)[C@H]3CC[C@]12C |  |  |  |  | 33 | 54 | 19 | 3 |  | Activity [10]: inactive |
| C[C@H](CC[C@H](O)C(C)(C)O)[C@H]1CC[C@H]2[C@@H]3C(=O)C=C4C[C@@H](O)CC[C@]4(C)[C@H]3CC[C@]12C |  |  |  |  | 21 | 6 | 58 | 15 | 49 | Activity [11]: 3%; Activity [12]: 24%; Activity [13]: 7%; Activity [14]: 15%; Activity [15]: 26%; Activity [16]: 2%; Activity [17]: 4%; Activity [18]: 3%; Activity [19]: 5%; Activity [20]: 45%; Activity [21]: 37%; Activity [22]: 4% |
